Patent US20130252943A1, “BICYCLIC OXAZOLE LACTAMS AS ALLOSTERIC MODULATORS OF MGLUR5 RECEPTORS” (VANDERBILT UNIVERSITY, priority 2012, published 2013)

Tests used:
human mGluR5 = human mGluR5 (Homo sapiens, UniProt P41594); assay: Cell-based functional Ca2+ mobilization assay (FDSS), potentiation of glutamate EC20 response, H10H cell line; conditions: HEK H10H cells; for Emax: maximum average response at a single concentration, as percent of maximal glutamate response, glutamate EC20; for EC50: positive allosteric modulation in presence of glutamate EC20, concentration in mol/L
Text: Human mGluR5a cDNA in pCMV6-XL6 mammalian expression plasmid was purchased from OriGene Technologies, Inc. (catalogue number SC326357) and subcloned into pcDNA3.1(−). Human embryonic kidney (HEK)293A cells were then transfected with human mGluR5a pcDNA3.1(−) using LipofectAmine-2000 (Invitrogen) and monoclones were selected and tested for functional response using a Ca^2+ mobilization assay. Monoclones were named for the species (“H” for human) plus the location on the plate (e.g. “10H”).
HEK cells transfected with the human mGluR5a receptor (H10H or H12H cell line) were plated at 15,000 cells/well in clear-bottomed poly-D-lysinecoated assay plates (BD Falcon) in glutamate-glutamine-free growth medium and incubated overnight at 37° C. and 5% CO2. Cell-lines used were either the H10H or H12H cell-lines expressing the human mGluR5 receptor. The following day, the growth medium was removed and the cells were washed with assay buffer containing 1× Hank's balanced salt solution (Invitrogen, Carlsbad, Calif.), 20 mM HEPES, 2.5 mM probenecid, pH 7.4 and left with 20 μL of this reagent. Following this step, the cells were loaded with calcium indicator dye, fluo-4 AM, to a final concentration of 2 μM and incubated for 40-45 min at 37° C. The dye solution was removed and replaced with assay buffer. Cell plates were held for 10-15 min at room temperature and were then loaded into the Functional Drug Screening System 6000 (FDSS 6000, Hamamatsu, Japan).
After establishment of a fluorescence baseline for about 3 seconds, the compounds of the present invention were added to the cells, and the response in cells was measured. 2.3 minutes later an EC20 concentration of the mGluR5 receptor agonist glutamate was added to the cells, and the response of the cells was measured for about 1.7 minutes. All test compounds were dissolved and diluted to a concentration of 10 mM in 100% DMSO and then serially diluted into assay buffer for a 2× stock solution in 0.6% DMSO; stock compounds were then added to the assay for a final DMSO concentration of 0.3% after the first addition to the assay well. Calcium fluorescence measures were recorded as fold over basal fluorescence; raw data was then normalized to the maximal response to glutamate.
The concentration-response curves of compounds of the present invention, obtained in the presence of EC20 of mGluR5 receptor agonist glutamate to determine positive allosteric modulation, were generated using Microsoft Excel with IDBS XLFit add-ins. The raw data file containing all time points was used as the data source in the analysis template. This was saved by the FDSS as a tab-delimited text file. Data were normalized using a static ratio function (F/F0) for each measurement of the total 350 values per well divided by each well's initial value. Data was then reduced as to peak amplitudes (Max—Initial Min) using a time range that starts approximately 1 second after the glutamate EC20 addition and continues for approximately 40 seconds. This is sufficient time to capture the peak amplitude of the cellular Calcium response. Individual amplitudes were expressed as % EMax by multiplying each amplitude by 100 and then dividing the product by the mean of the amplitudes derived from the glutamate ECMax-treated wells. pEC50 values for test compounds were generated by fitting the normalized values versus the log of the test compound concentration (in mol/L) using a 4 parameter logistic equation where none of the parameters were fixed. Each of the three values collected at each concentration of test compound were weighted evenly. Individual values falling outside the 95% prediction limits of the curve fit were automatically excluded from the fit. […] These two methods are in good agreement for curves with a clear plateau at the high concentration range. […] For consistency purposes across the range of potencies observed, all EMax values reported in this application are calculated using the maximum average response at a single concentration. […]

human mGluR5, sequence (P41594 21-1180 isoform P41594-2 limits assumed): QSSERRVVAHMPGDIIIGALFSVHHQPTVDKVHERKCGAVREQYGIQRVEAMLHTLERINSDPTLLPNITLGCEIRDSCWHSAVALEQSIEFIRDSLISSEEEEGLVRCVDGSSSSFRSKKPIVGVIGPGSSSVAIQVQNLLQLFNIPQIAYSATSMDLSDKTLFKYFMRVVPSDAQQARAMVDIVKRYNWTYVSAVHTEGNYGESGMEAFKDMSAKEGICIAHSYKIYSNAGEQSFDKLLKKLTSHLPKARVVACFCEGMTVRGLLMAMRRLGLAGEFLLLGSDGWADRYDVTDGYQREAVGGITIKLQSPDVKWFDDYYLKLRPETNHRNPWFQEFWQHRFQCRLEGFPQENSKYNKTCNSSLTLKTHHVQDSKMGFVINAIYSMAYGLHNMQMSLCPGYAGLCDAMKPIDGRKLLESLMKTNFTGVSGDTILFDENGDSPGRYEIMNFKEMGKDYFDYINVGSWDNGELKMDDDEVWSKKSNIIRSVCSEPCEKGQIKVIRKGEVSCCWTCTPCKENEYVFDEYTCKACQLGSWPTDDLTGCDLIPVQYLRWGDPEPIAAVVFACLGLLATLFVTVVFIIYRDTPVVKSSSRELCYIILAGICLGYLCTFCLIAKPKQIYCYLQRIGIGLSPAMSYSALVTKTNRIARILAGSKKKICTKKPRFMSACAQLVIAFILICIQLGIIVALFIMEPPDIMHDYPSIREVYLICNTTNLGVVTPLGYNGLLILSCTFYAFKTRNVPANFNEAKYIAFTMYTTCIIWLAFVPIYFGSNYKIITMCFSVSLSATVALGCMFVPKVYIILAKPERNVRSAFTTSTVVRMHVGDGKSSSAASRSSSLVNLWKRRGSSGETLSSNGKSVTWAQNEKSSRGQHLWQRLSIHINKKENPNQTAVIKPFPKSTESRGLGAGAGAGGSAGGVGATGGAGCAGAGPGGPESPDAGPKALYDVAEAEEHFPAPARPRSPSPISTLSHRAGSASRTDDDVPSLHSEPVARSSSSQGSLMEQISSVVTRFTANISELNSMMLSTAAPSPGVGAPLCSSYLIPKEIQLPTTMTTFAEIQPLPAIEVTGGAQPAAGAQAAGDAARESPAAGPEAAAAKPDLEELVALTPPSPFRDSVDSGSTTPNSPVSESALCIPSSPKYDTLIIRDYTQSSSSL

| melting point | Emax (human mGluR5) | EC50 (human mGluR5) | Compound |
| --- | --- | --- | --- |
| 132.4 °C | 61% | > 10000 nM | Cc1ccc(N2CCc3nc(COc4ccccc4)oc3C2=O)nc1 [Compound B15] |
| 138.8 °C | 44% | > 10000 nM | Cc1cncc(N2CCc3nc(COc4ccccc4)oc3C2=O)n1 [Compound B24] |
| 142 °C | 53% | 3090 nM | COc1nccc(N2CCc3nc(COc4ccccc4)oc3C2=O)n1 [Compound B23] |
| > 300 °C | 38% | > 10000 nM | Cc1ccnc(N2CCc3nc(COc4ccccc4)oc3C2=O)c1 [Compound B16] |
| 116.3 °C | 53% | > 10000 nM | Cc1cccc(N2CCc3nc(COc4ccccc4)oc3C2=O)n1 [Compound B14] |
| 123.3 °C | 32% | > 30200 nM | O=C1c2oc(COc3ccccc3)nc2CCN1c1ccccn1 [Compound B8] |
| 131.9 °C | 62% | 2140 nM | O=C1c2oc(COc3ccccc3)nc2CCN1c1ccc(F)cn1 [Compound B11] |
| 125.7 °C | 56% | > 10000 nM | Cc1cc(N2CCc3nc(COc4ccccc4)oc3C2=O)ncc1F [Compound B21] |
| 131.1 °C | 47% | > 10000 nM | COc1nccnc1N1CCc2nc(COc3ccccc3)oc2C1=O [Compound B25] |
| 138.8 °C | 43% | > 10000 nM | Cc1cccnc1N1CCc2nc(COc3ccccc3)oc2C1=O [Compound B17] |
| 216.7 °C | 65% | 1290 nM | COc1nc(N2CCc3nc(COc4ccccc4)oc3C2=O)ncc1F [Compound B22, 5-(5-fluoro-4-methoxy-pyrimidin-2-yl)-2-phenoxymethyl-6,7-dihydro-5H-oxazolo[5,4-c]pyridin-4-one] |
| 130.9 °C | 49% | > 10000 nM | O=C1c2oc(COc3ccccc3)nc2CCN1c1ccncc1 [Compound B10] |

Second part, the molecule before the results:

| Compound | melting point | Emax (human mGluR5) | EC50 (human mGluR5) |
| --- | --- | --- | --- |
| O=C1c2oc(COc3ccccc3)nc2CCN1c1cccc(F)c1F [Compound B4] | 137.2 °C | 75% | 646 nM |
| O=C1c2oc(COc3ccccc3)nc2CCN1c1cccc(F)c1 [Compound B3] | 132.5 °C | 71% | 1320 nM |
| CC1Cc2nc(COc3ccccc3)oc2C(=O)N1c1ccc(F)cc1 (racemic) [Compound B27, (rac)-5-(4-fluoro-phenyl)-6-methyl-2-phenoxymethyl-6,7-dihydro-5H-oxazolo[5,4-c]pyridin-4-ONE] |  | 64% | 575 nM |
| CN1CCc2nc(COc3ccccc3)oc2C1=O [Compound B33, 5-methyl-2-phenoxymethyl-6,7-dihydro-5H-oxazolo[5,4-c]pyridin-4-one] |  | 35% | > 30200 nM |
| O=C1c2oc(COc3ccccc3)nc2CCN1Cc1ccccc1 [Compound B36] |  | 59% | 891 nM |
| O=C1c2oc(COc3ccccc3)nc2CCN1c1ccc(F)c(F)c1 [Compound B6] | 151.7 °C | 77% | 501 nM |
| O=C1c2oc(COc3ccccc3)nc2CCN1CC1CC1 [Compound B34] | 119.2 °C | 68% | 3470 nM |
| O=C1NCCCc2nc(COc3ccccc3)oc21 [Compound B37, 2-phenoxymethyl-5,6,7,8-tetrahydro-3-oxa-1,5-diaza-azulen-4-one] |  | 21% | > 30200 nM |
| O=C1c2oc(COc3ccccc3)nc2CCN1c1cccnc1 [Compound B9] | 188.7 °C | 38% | > 30200 nM |
| C[C@@H](N1CCc2nc(COc3ccccc3)oc2C1=O)C(C)(C)C [Compound B35, (R)-2-phenoxymethyl-5-(1,2,2-trimethyl-propyl)-6,7-dihydro-5H-oxazolo[5,4-c]pyridin-4-one] |  | 54% | 977 nM |
| O=C1c2oc(COc3ccccc3)nc2CCN1c1c(F)cccc1F [Compound B5] |  | 73% | 891 nM |
| O=C1c2oc(COc3ccccc3)nc2CCN1c1ccccc1 [Compound B13] | 131.7 °C | 76% | 1120 nM |
| O=C1c2oc(COc3ccccc3)nc2CCN1c1ccc(F)cc1 [Compound B1, 5-(4-fluoro-phenyl)-2-phenoxymethyl-6,7-dihydro-5H-oxazolo[5,4-c]pyridin-4-one] | 135.8 °C | 83% | 447 nM |
| O=C1c2oc(COc3ccccc3)nc2CCN1c1cc(F)cc(F)c1 [Compound B7] | 150.7 °C | 63% | 1510 nM |
| O=C1NCCc2nc(COc3ccccc3)oc21 [Compound B29, 2-phenoxymethyl-6,7-dihydro-5H-oxazolo[5,4-c]pyridin-4-one] | 148.5 °C | 21% | > 30200 nM |
| O=C1c2oc(COc3ccccc3)nc2CCN1c1ccccc1F [Compound B2] | 116.1 °C | 74% | 1100 nM |
| O=C1c2oc(COc3ccccc3)nc2CCN1c1cncc(F)c1 [Compound B12] | 133.1 °C | 27% | > 30200 nM |
| CN1CCCc2nc(COc3ccccc3)oc2C1=O [Compound B39] |  | 25% | > 30200 nM |
| CC1CN(c2ccc(F)cc2)C(=O)c2oc(COc3ccccc3)nc21 (stereo not shown) [Compound B28] |  | 79% | 646 nM |
